Target: T1, H^+ +K^+ ATPase (Sus scrofa, UniProt P19156)
T1 construct: prepared from porcine stomach; from tissue; host or cells: porcine stomach
Assay: H+ +K+ ATPase inhibition (inorganic phosphoric acid release)
Type: biochemical
Settings: enzyme prepared from porcine stomach; 30 min with compound at room temperature, pH 6.1; then 30 min at 37° C., pH 7.4, 20 mM KCl
Protocol: H^+ +K^+ ATPase (adenosine triphosphatase) (amount of protein: 10 μg) prepared from porcine stomach was added to a Pipes-TRIS [i.e. 2-amino-2-(hydroxymethyl)-1,3-propanediol] buffer solution (pH 6.1) containing 2 mM of piperazine N,N'-bis(2-ethanesulfonic acid), and the mixture was let stand at room temperature. A test compound was dissolved in dimethyl formamide, and the mixture was added to said H^+ +K^+ ATPase buffer solution so that the final concentration should be 1% and let stand for reaction for 30 minutes at room temperature. Then a 75 mM Pipes-TRIS buffer (1 ml, pH 7.4) (containing 4 mM MgCl2, 4 mM Na2 ATP, and 20 mM KCl) and a 75 mM Pipes-TRIS buffer (1 ml, pH 7.4) (containing 4 mM MgCl2, and 4 mM Na2 ATP) were added to the solution individually to make two kinds of samples and these samples were presented for reaction for 30 minutes at 37° C. 40% Trichloroacetic acid (0.3 ml) was added to each sample to stop the reaction. The solution were subjected to centrifugal separation (3000 rpm) for 10 minutes, and the supernatant was taken off, then the formed inorganic phosphoric acid was measured by Fiske and Subbarow's method [J. Biol. Chem. vol. 66, 375 (1925)]. The value of deducting the amount of inorganic phosphoric acid taken from the Pipes-Tris buffer not containing 20 mM KCl from that taken from the Pipes-Tris buffer containing 20 mM KCl was calculated in terms of unit protein and unit hour to be defined as an activity index of enzyme. Inhibition level (%) in doses of administration was estimated by control values and activity indices of enzyme, and from the obtained inhibition level (%), IC50 (dose of administration of compounds to inhibit in 50%) was obtained.

T1 sequence (P19156 2-1034 limits assumed): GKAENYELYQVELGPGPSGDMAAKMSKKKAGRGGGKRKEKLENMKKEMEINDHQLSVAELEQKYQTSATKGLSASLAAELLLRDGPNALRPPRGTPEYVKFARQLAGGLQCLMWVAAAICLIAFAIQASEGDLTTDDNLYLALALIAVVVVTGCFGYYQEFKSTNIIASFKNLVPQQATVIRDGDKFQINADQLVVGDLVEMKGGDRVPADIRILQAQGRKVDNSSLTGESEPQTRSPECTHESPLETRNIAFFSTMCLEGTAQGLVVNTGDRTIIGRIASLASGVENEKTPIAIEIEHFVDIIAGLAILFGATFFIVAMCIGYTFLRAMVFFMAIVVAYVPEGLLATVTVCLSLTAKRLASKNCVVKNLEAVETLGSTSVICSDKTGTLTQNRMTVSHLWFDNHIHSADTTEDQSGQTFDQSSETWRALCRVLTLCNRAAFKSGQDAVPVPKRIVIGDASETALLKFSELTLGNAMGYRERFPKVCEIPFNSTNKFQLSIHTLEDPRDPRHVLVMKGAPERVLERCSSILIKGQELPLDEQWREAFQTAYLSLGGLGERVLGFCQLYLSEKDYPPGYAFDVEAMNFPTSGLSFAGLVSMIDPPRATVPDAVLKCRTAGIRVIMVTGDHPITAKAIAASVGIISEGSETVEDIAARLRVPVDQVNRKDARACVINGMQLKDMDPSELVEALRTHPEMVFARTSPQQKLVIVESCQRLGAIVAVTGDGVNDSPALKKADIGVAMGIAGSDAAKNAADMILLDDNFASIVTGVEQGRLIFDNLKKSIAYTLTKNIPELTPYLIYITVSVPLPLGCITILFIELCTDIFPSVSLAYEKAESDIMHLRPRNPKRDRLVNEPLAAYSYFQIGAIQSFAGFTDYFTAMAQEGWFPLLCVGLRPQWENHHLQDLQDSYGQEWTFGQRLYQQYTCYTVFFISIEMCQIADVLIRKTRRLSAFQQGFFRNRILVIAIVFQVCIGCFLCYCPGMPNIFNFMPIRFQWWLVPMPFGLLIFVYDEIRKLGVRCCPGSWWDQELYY
T1 sequence (P18434 whole entry partner): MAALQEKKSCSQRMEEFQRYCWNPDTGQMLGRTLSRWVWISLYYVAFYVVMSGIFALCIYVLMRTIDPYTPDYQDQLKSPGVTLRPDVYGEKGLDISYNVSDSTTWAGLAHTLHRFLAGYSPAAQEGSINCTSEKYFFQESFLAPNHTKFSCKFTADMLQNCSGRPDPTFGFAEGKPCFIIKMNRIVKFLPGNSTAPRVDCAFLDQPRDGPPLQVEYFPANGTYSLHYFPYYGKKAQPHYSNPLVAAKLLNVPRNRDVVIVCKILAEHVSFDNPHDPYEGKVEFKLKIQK

Row | Compound | IC50 [µM]
1 | Cc1ccc2nc([S+]([O-])Cc3cccc4c3N(Cc3ccc(F)cc3)CCC4)[nH]c2c1 (stereo not drawn) [Test compound No. 34, 1-(4-fluorobenzyl)-8-(5-methyl-2-benzimidazolyl)sulfinylmethyl-1,2,3,4-tetrahydroquinoline] | 2.1
2 | CN1CCC(=O)c2cccc(C[S+]([O-])c3nc4ccccc4[nH]3)c21 (stereo not drawn) [Test compound No. 43, 1-methyl-8-(2-benzimidazolyl)sulfinylmethyl-4-oxo-1,2,3,4-tetrahydroquinoline] | 6.7
3 | CN1CCC(C)(O)c2cccc(C[S+]([O-])c3nc4ccccc4[nH]3)c21 (stereo not drawn) [Test compound No. 45, 1,4-dimethyl-8-(2-benzimidazolyl)sulfinylmethyl-4-hydroxy-1,2,3,4-tetrahydroquinoline] | 2.2
4 | CCC1(O)CCN(C)c2c(C[S+]([O-])c3nc4ccccc4[nH]3)cccc21 (stereo not drawn) [Test compound No. 46, 1-methyl-8-(2-benzimidazolyl)sulfinylmethyl-4-ethyl-4-hydroxy-1,2,3,4-tetrahydroquinoline] | 1.8
5 | CCN1CCC(c2ccccc2)c2cccc(C[S+]([O-])c3nc4ccc(C)cc4[nH]3)c21 (stereo not drawn) [Test compound No. 47, 1-ethyl-8-(5-methyl-2-benzimidazolyl)sulfinylmethyl-4-phenyl-1,2,3,4-tetrahydroquinoline] | 1.5
6 | CCN1CCC(=NO)c2cccc(C[S+]([O-])c3nc4ccccc4[nH]3)c21 (stereo not drawn) [Test compound No. 50, 1-ethyl-8-(2-benzimidazolyl)sulfinylmethyl-4-hydroxyimino-1,2,3,4-tetrahydroquinoline] | 4.7
7 | C=CCOC1CCN(CC)c2c(C[S+]([O-])c3nc4ccccc4[nH]3)cccc21 (stereo not drawn) [Test compound No. 51, 1-ethyl-8-(2-benzimidazolyl)sulfinylmethyl-4-allyloxy-1,2,3,4-tetrahydroquinoline] | 2.9
8 | C=C1CCN(CC)c2c(C[S+]([O-])c3nc4ccccc4[nH]3)cccc21 (stereo not drawn) [Test compound No. 52, 1-ethyl-8-(2-benzimidazolyl)sulfinylmethyl-4-methylene-1,2,3,4-tetrahydroquinoline] | 3.9
9 | CCN1CC(C(=O)OC)Cc2cccc(C[S+]([O-])c3nc4ccccc4[nH]3)c21 (stereo not drawn) [Test compound No. 53, 1-ethyl-8-(2-benzimidazolyl)sulfinylmethyl-3-methoxycarbonyl-1,2,3,4-tetrahydroquinoline] | 4.9
10 | CCN1CC(C(=O)N(C)C)Cc2cccc(C[S+]([O-])c3nc4ccccc4[nH]3)c21 (stereo not drawn) [Test compound No. 55, 1-ethyl-8-(2-benzimidazolyl)sulfinylmethyl-3-dimethylcarbamoyl-1,2,3,4-tetrahydroquinoline 1/3-hydrate] | 5.1
11 | CCN1CC(C(=O)O)Cc2cccc(C[S+]([O-])c3nc4ccccc4[nH]3)c21 (stereo not drawn) [Test compound No. 56, 1-ethyl-8-(2-benzimidazolyl)sulfinylmethyl-3-carboxy-1,2,3,4-tetrahydroquinoline 1/2hydrate] | 1.9
12 | CCN1CC(C(=O)N2CCCCC2)Cc2cccc(C[S+]([O-])c3nc4ccccc4[nH]3)c21 (stereo not drawn) [Test compound No. 58, 1-ethyl-8-(2-benzimidazolyl)sulfinylmethyl-3-(1-piperizinyl)carbonyl-1,2,3,4-tetrahydroquinoline] | 5.9
13 | CCN1CCC(N(C)C(C)=O)c2cccc(C[S+]([O-])c3nc4ccccc4[nH]3)c21 (stereo not drawn) [Test compound No. 59, 1-ethyl-8-(2-benzimidazolyl)sulfinylmethyl-4-(N-methyl-N-acetyl)amino-1,2,3,4-tetrahydroquinoline] | 5.7
14 | C=CCNC1CCN(CC)c2c(C[S+]([O-])c3nc4ccc(C)cc4[nH]3)cccc21 (stereo not drawn) [Test compound No. 60, 1-ethyl-8-(5-methyl-2-benzimidazolyl)sulfinylmethylmethyl-4-allylamino-1,2,3,4-tetrahydroquinoline] | 3.3
15 | C=CCN1CCC(OC)c2cccc(C[S+]([O-])c3nc4ccc(C)cc4[nH]3)c21 (stereo not drawn) [Test compound No. 62, 1-allyl-8-(5-methyl-2-benzimidazolyl)sulfinylmethylmethyl-4-methoxy-1,2,3,4-tetrahydroquinoline] | 4

Compounds with a lower IC50, results first:

Row | IC50 [µM] | Compound
16 | 0.92 | CCN1CCCc2cc(C)cc(C[S+]([O-])c3nc4ccccc4[nH]3)c21 (stereo not drawn) [Test compound No. 32, 1-ethyl-6-methyl-8-(2-benzimidazolyl)sulfinylmethyl-1,2,3,4-tetrahydroquinoline]
17 | 0.58 | C=CCN1CCCc2cccc(C[S+]([O-])c3nc4ccc(C)cc4[nH]3)c21 (stereo not drawn) [Test compound No. 33, 1-allyl-8-(5-methyl-2-benzimidazolyl)sulfinylmethyl-1,2,3,4-tetrahydroquinoline]
18 | 0.25 | [O-][S+](Cc1cccc2c1N(CC1CC1)CCC2)c1nc2ccccc2[nH]1 (stereo not drawn) [Test compound No. 35, 1-cyclopropylmethyl-8-(2-benzimidazolyl)sulfinylmethyl-1,2,3,4-tetrahydroquinoline]
19 | 0.45 | CCN1CCCc2cccc(C[S+]([O-])c3nc4ccccc4[nH]3)c21 (stereo not drawn) [Test compound No. 36, 1-ethyl-8-(2-benzimidazolyl)sulfinylmethyl-1,2,3,4-tetrahydroquinoline]
20 | 0.89 | CCN1CCC(C)c2cccc(C[S+]([O-])c3nc4cc(OC)c(F)cc4[nH]3)c21 (stereo not drawn) [Test compound No. 37, 1-ethyl-8-(5-fluoro-6-methoxy-2-benzimidazolyl)sulfinylmethyl-4-methyl-1,2,3,4-tetrahydroquinoline]
21 | 0.83 | C=CCN1CC(C)Cc2cccc(C[S+]([O-])c3nc4ccccc4[nH]3)c21 (stereo not drawn) [Test compound No. 38, 1-allyl-8-(2-benzimidazolyl)sulfinylmethyl-3-methyl-1,2,3,4-tetrahydroquinoline]
22 | 0.13 | CC1=CCN(C)c2c(C[S+]([O-])c3nc4ccc(C)cc4[nH]3)cccc21 (stereo not drawn) [Test compound No. 39, 1,4-dimethyl-8-(5-methyl-2-benzimidazolyl)sulfinylmethyl-1,2-dihydroquinoline]
23 | 0.52 | COc1ccc2nc([S+]([O-])Cc3cccc4c3N(C)CC=C4C)[nH]c2c1 (stereo not drawn) [Test compound No. 40, 1,4-dimethyl-8-(5-methoxy-2-benzimidazolyl)sulfinylmethyl-1,2-dihydroquinoline]
24 | 0.23 | CCN1CC=C(C)c2cccc(C[S+]([O-])c3nc4ccccc4[nH]3)c21 (stereo not drawn) [Test compound No. 41, 1-ethyl-8-(2-benzimidazolyl)sulfinylmethyl-4-methyl-1,2-dihydroquinoline 1/2-hydrate]
25 | 0.55 | CC1=C(C)c2cccc(C[S+]([O-])c3nc4ccccc4[nH]3)c2N(C)C1 (stereo not drawn) [Test compound No. 42, 1,3,4-trimethyl-8-(2-benzimidazolyl)sulfinylmethyl-1,2-dihydroquinoline]
26 | 1.1 | CCN1CCC(OC)c2cccc(C[S+]([O-])c3nc4ccccc4[nH]3)c21 (stereo not drawn) [Test compound No. 48, 1-ethyl-8-(2-benzimidazolyl)sulfinylmethyl-4-methoxy-1,2,3,4-tetrahydroquinoline]
27 | 1.2 | CCN1CC(CO)Cc2cccc(C[S+]([O-])c3nc4ccccc4[nH]3)c21 (stereo not drawn) [Test compound No. 54, 1-ethyl-8-(2-benzimidazolyl)sulfinylmethyl-3-hydroxymethyl-1,2,3,4-tetrahydroquinoline]

From patent US4963566A, “Benzimidazolyl-sulfinyl-tetrahydroquinolines” (Otsuka Pharmaceutical Co., Ltd., priority 1986, dated 1990)
